Laboratory results: PubChem BioAssay AID330 (DTP/NCI, 2004)
Where “and” joins values, the source holds several entries; their conditions need not be identical. Equal values may be shown once. Inconclusive results and toxic doses are left out.

Test system: P388 leukemia ip, CD2F1 mice, survival T/C
Test: NCI In Vivo Anticancer Drug Screen. Data for tumor model P388 Leukemia (intraperitoneal) in CD2F1 (CDF1) mice
Conditions: endpoint: median survival time, higher = longer survival
Method in brief: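 Mice carrying the transplanted tumor received test compound or vehicle. Survival was recorded in each group, and the value is the treated-group measurement divided by that of the vehicle-treated control group.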

[1] = dose: 50.0 mg/kg/injection, schedule: Q01DX009 (ip), vehicle: saline with Tween-80
[2] = dose: 100.0 mg/kg/injection, schedule: Q01DX009 (ip), vehicle: saline with Tween-80
[3] = dose: 200.0 mg/kg/injection, schedule: Q01DX009 (ip), vehicle: saline with Tween-80
[4] = dose: 50.0 mg/kg/injection, schedule: Q01DX005 (ip), vehicle: Klucel (hydroxypropylcellulose) (HPC)
[5] = dose: 100.0 mg/kg/injection, schedule: Q01DX005 (ip), vehicle: Klucel (hydroxypropylcellulose) (HPC)
[6] = dose: 200.0 mg/kg/injection, schedule: Q01DX005 (ip), vehicle: Klucel (hydroxypropylcellulose) (HPC)
[7] = dose: 50.0 mg/kg/injection, schedule: Q01DX009 (ip), vehicle: saline
[8] = dose: 100.0 mg/kg/injection, schedule: Q01DX009 (ip), vehicle: saline
[9] = dose: 200.0 mg/kg/injection, schedule: Q01DX009 (ip), vehicle: saline

## Brc1ccc(C2=CSC3=NCCN23)cc1
dose: 1.56 mg/kg/injection, schedule: Q01DX009 (ip), vehicle: saline with Tween-80
  T/C: 97 % of control
dose: 3.12 mg/kg/injection, schedule: Q01DX009 (ip), vehicle: saline with Tween-80
  T/C: 94 % of control
dose: 6.25 mg/kg/injection, schedule: Q01DX009 (ip), vehicle: saline with Tween-80
  T/C: 106 % of control and 114 % of control and 93 % of control
dose: 12.5 mg/kg/injection, schedule: Q01DX009 (ip), vehicle: saline with Tween-80
  T/C: 100 % of control and 103 % of control and 122 % of control
dose: 18.75 mg/kg/injection, schedule: Q01DX009 (ip), vehicle: saline with Tween-80
  T/C: 93 % of control
dose: 25.0 mg/kg/injection, schedule: Q01DX009 (ip), vehicle: saline with Tween-80
  T/C: 108 % of control and 113 % of control

## CCCCCCCCCCCCOC(=O)c1ccc(I)cc1
[1]
  T/C: 97 % of control
[2]
  T/C: 97 % of control
[3]
  T/C: 102 % of control

## CCCCCCCCCCCCCCCC[N+](C)(CCO)Cc1ccccc1 (centres undefined)
dose: 6.25 mg/kg/injection, schedule: Q04DX002 (ip), vehicle: saline with Tween-80
  T/C: 112 % of control
dose: 12.5 mg/kg/injection, schedule: Q04DX002 (ip), vehicle: saline with Tween-80
  T/C: 116 % of control

## Cc1ccc(S(=O)(=O)Nc2nnc(-c3coc4ccc(C)cc4c3=O)s2)cc1
dose: 50.0 mg/kg/injection, schedule: Q01DX005 (ip), vehicle: saline with Tween-80
  T/C: 89 % of control
dose: 100.0 mg/kg/injection, schedule: Q01DX005 (ip), vehicle: saline with Tween-80
  T/C: 88 % of control

## C#CC1CCC(NC(=O)NCCCCCCNC(=O)NC2CCC(C#C)CC2)CC1 (centres undefined)
[4]
  T/C: 90 % of control
[5]
  T/C: 94 % of control
[6]
  T/C: 86 % of control

## CCCCCCC(/C=C/c1ccc(Cl)c(Cl)c1)=N\NC(=O)C(N)=O
[7]
  T/C: 101 % of control
[8]
  T/C: 101 % of control
[9]
  T/C: 110 % of control

## O=C(O)c1cccnc1Cl
[1]
  T/C: 103 % of control
[2]
  T/C: 96 % of control
[3]
  T/C: 100 % of control

## CC1=C(C)C(N(C)C)CS(=O)(=O)O1 (centres undefined)
[4]
  T/C: 99 % of control
[5]
  T/C: 104 % of control

## [Cl][Pt][Cl].[NH-]CC(=O)O
dose: 25.0 mg/kg/injection, schedule: Q01DX009 (ip), vehicle: water
  T/C: 171 % of control and 185 % of control
dose: 50.0 mg/kg/injection, schedule: Q01DX009 (ip), vehicle: water
  T/C: 104 % of control

## C1CNC(N2CCN(C3=NCCN3)CC2)=N1
[4]
  T/C: 104 % of control
[5]
  T/C: 100 % of control

## CC(=O)CC(=O)CCCC(=O)O
[1]
  T/C: 96 % of control
[2]
  T/C: 99 % of control
[3]
  T/C: 104 % of control

## CCCCc1ccc(Nc2ccc(Nc3ccc(CCCC)cc3S(=O)(=O)O)c3c2C(=O)c2ccccc2C3=O)c(S(=O)(=O)O)c1
[1]
  T/C: 94 % of control
[2]
  T/C: 90 % of control
[3]
  T/C: 94 % of control

## COc1ccc(S(=O)(=O)N/N=C/c2ccccn2)cc1OC
[4]
  T/C: 99 % of control
[5]
  T/C: 96 % of control
[6]
  T/C: 98 % of control

## O=S(=O)(O)SCCCSS(=O)(=O)O
[7]
  T/C: 100 % of control
[8]
  T/C: 99 % of control
[9]
  T/C: 102 % of control

## O=C(OC1CCC2(CC1)N=NC1(CCC(OC(=O)c3ccccc3)CC1)S2)c1ccccc1 (centres undefined)
[7]
  T/C: 98 % of control
[8]
  T/C: 97 % of control
[9]
  T/C: 101 % of control

## Cc1nc2c([N+](=O)[O-])c(NCCO)c([N+](=O)[O-])cc2[nH]1
dose: 100.0 mg/kg/injection, schedule: Q04DX003 (ip), vehicle: saline with Tween-80
  T/C: 94 % of control
dose: 200.0 mg/kg/injection, schedule: Q04DX003 (ip), vehicle: saline with Tween-80
  T/C: 92 % of control
dose: 400.0 mg/kg/injection, schedule: Q04DX003 (ip), vehicle: saline with Tween-80
  T/C: 103 % of control

## CCN(CC)c1c(C)c(C(=O)OC)nn1-c1ccccc1
dose: 60.0 mg/kg/injection, schedule: Q01DX005 (ip), vehicle: saline with Tween-80
  T/C: 107 % of control
dose: 120.0 mg/kg/injection, schedule: Q01DX005 (ip), vehicle: saline with Tween-80
  T/C: 104 % of control
dose: 240.0 mg/kg/injection, schedule: Q01DX005 (ip), vehicle: saline with Tween-80
  T/C: 96 % of control
